Reference: US10667515B2, “(S)-5-ethynyl-anabasine, derivatives thereof, and related compositions and methods of making and using” (priority 2016, dated 2020)
Entries after “also recorded” stand apart in the source; their conditions may differ. Where a name gives a salt, the structure may show the parent alone. Read-outs that look alike come from different tables or passages of the source.

What was measured:
Asu-ACR-16 [1] = biological target: T1, Asu-ACR-16 (Ascaris suum (Pig roundworm) (Ascaris lumbricoides), UniProt F1KYJ9); assay: cell-based; format: cell-based; details: for Emax: read-out: maximum response (Imax); for maximum response (Imax): normalized to peak current of 100 μM ACh
T1 sequence (F1KYJ9 1-504): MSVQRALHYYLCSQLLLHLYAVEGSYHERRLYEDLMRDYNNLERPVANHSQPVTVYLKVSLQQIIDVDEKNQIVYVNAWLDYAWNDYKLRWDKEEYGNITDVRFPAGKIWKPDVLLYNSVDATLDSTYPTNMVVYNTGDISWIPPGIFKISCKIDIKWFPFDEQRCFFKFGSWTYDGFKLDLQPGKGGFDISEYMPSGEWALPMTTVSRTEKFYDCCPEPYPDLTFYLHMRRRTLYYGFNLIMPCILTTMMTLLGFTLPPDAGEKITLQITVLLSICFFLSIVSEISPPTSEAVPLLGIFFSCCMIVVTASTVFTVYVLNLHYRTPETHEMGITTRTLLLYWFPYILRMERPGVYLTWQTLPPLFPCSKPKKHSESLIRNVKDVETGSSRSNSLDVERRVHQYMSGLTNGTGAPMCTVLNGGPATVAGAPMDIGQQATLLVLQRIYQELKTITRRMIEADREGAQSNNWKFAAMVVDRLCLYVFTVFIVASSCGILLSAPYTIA
Method: Full-length Asu-acr-16 cRNA and ancillary gene Asu-ric-3 cRNA (UniProtKB Accession No. F1L1D9) were prepared as previously described (Zheng et al. (2016), supra). A cRNA mixture of 25 ng Asu-acr-16 and 5 ng Asu-ric-3 cRNA in 50 nL RNAse-free water was injected into de-folliculated Xenopus laevis oocytes (Ecocyte Bioscience, Austin, Tex., USA). The injected oocytes were incubated in an incubation solution (100 mM NaCl, 2 mM KCl, 1.8 mM CaCl2.2H2O, 1 mM MgCl2.6H20, 5 mM HEPES, 2.5 mM Na-pyruvate, 100 U/mL penicillin, and 100 μg/mL streptomycin, pH 7.5) at 19° C. for 4-8 days, after which 100 μM BAPTA-AM was added three hours before recording.
Two-electrode voltage clamp electrophysiology was used to determine agonist concentration-current-response plots to estimate the potencies (EC50s) of the agonists. The oocytes were kept in a recording solution (100 mM NaCl, 2.5 mM KCl, 1 mM CaCl2.2H2O, and 5 mM HEPES, pH 7.3) and clamped to −60 mV during recording.
Inward current signals in the oocytes were induced by the addition of chemicals that acted as agonists opening the nicotinic ion-channel receptors. […] An Axoclamp 2B amplifier (Molecular Devices, Sunnyvale, Calif.) was used to record the currents that were acquired with Clampex 9.2 software (Molecular Devices) and analyzed using GraphPad Prism 5.0 (Graphpad Software, Inc., La Jolla, Calif.).
Recording solution was then used to wash out the drug from the oocyte for 3 min prior to application of the next chemical perfusion.
Nicotine derivatives that elicited inward currents at 100 μM were classified as agonists. Increasing concentrations of each nicotine derivative were applied for 10 sec with 3-min wash intervals to determine the dose-response relationship of each agonist. […] Peak responses were recorded and normalized. […] The EC50 and Imax of each agonist were compared using the unpaired student's t-test. P<0.05 was used to evaluate the statistical difference.

Asu-ACR-16 [2] = biological target: T1, Asu-ACR-16; assay: Two-electrode voltage clamp inhibition of the ACh response of Asu-ACR-16 expressed in Xenopus laevis oocytes; format: cell-based
[3] = agonist dose-response, mean±S.E.M., N=5
[4] = agonist, currents normalized to 100 μM ACh, oocytes clamped to −60 mV, mean±S.E.M., N=5
[5] = inward currents at 100 μM classify as agonist
[6] = inhibition of ACh response, N=5

SMILES: CN1CCCC1c1cccnc1.O=C(O)C(O)C(O)C(=O)O (single isomer, unassigned; (-)) [(S)-nicotine, (−)-nicotine hydrogen tartrate salt]
- Hill slope (nH) (Asu-ACR-16 [1]): 3.39 ± 0.36
- agonist activity (in words) (Asu-ACR-16 [1]): potent agonist

SMILES: Cc1cncc(C2CCCN2C)c1 (stereo not shown) [5-methyl-nicotine, 5-methylnicotine]
- Hill slope (nH) (Asu-ACR-16 [1]; [3]): 2.09 ± 0.14
- EC50 (Asu-ACR-16 [1]; [4]): 990 ± 170 nM
- Emax (Asu-ACR-16 [1]): 76 ± 1.22%

SMILES: NC(=O)c1ccc(N)nc1 [6-AN, 6-aminonicotinamide]
- Hill slope (nH) (Asu-ACR-16 [1]; [3]): 10.10 ± 0.15
- agonist activity (in words) (Asu-ACR-16 [1]; [5]): little agonist activity
- Emax (Asu-ACR-16 [1]): 6.29 ± 0.62%
- IC50 (Asu-ACR-16 [2]): 2000 ± 410 nM
- inhibition of ACh response (in words) (Asu-ACR-16 [2]; 100 μM derivative co-applied with 100 μM ACh): most potent inhibitor
- mode of antagonism (in words) (Asu-ACR-16 [2]; ACh dose-response in presence of 1 μM 6-AN, concentration- and voltage-dependent inhibition): non-competitive antagonist
- Imax (Asu-ACR-16 [2]; [6]): 94.88±1.49%
- nH (Asu-ACR-16 [2]; [6]): 1.02±0.05

SMILES: Cc1ccc(C2CCCN2C)cn1 (stereo not shown) [6-methyl-nicotine, 6-methylnicotine]
- Hill slope (nH) (Asu-ACR-16 [1]; [3]): 3.25 ± 0.25
- Emax (Asu-ACR-16 [1]): 69.8 ± 1.56%

SMILES: CN1CCC[C@H]1c1ccc[n+](C)c1.[I-] [(S)-1-methyl-nicotinium, (S)-1-methylnicotinium iodide]
- agonist activity (in words) (Asu-ACR-16 [1]; [5]): did not act as agonists

SMILES: C[N+]1(C)CCC[C@H]1c1cccnc1.[I-] [(S)-1′-methyl-nicotinium, (S)-1′-methylnicotinium iodide]
- Hill slope (nH) (Asu-ACR-16 [1]; [3]): 3.52 ± 0.26
- maximum response (Imax) (Asu-ACR-16 [1]; mean±S.E.M., N=5): 93.38 ± 5.25%

SMILES: Brc1cncc([C@@H]2CCCCN2)c1 [(S)-5-bromo-anabasine, (S)-5-bromoanabasine]
- Hill slope (nH) (Asu-ACR-16 [1]; [3]): 4.19 ± 1.58
- maximum response (Imax) (Asu-ACR-16 [1]; mean±S.E.M., N=5): 80.69 ± 2.87%

SMILES: CN1CCC[C@H]1c1cncc(Br)c1 [(S)-5-bromo-nicotine, (S)-5-bromonicotine]
- Hill slope (nH) (Asu-ACR-16 [1]; [3]): 2.46 ± 0.21
- EC50 (Asu-ACR-16 [1]; [4]): 2040 ± 120 nM
- Emax (Asu-ACR-16 [1]): 69.7 ± 3.28%

SMILES: C#Cc1cncc([C@@H]2CCCCN2)c1 [(S)-5-ethynyl-anabasine]
- Hill slope (nH) (Asu-ACR-16 [1]; [3]): 1.81 ± 0.24
- maximum response (Imax) (Asu-ACR-16 [1]; mean±S.E.M., N=5): 79.33 ± 3.75%
- EC50 lower (more potent) than (S)-nicotine (Asu-ACR-16 [1]; ratio of EC50 values): 44 times

SMILES: C#Cc1cncc([C@@H]2CCCN2C)c1 [(S)-SIB 1508Y, SIB 1508Y maleate]
- Hill slope (nH) (Asu-ACR-16 [1]; [3]): 0.94 ± 0.04
- EC50 (Asu-ACR-16 [1]; [4]): 370 ± 100 nM
- maximum response (Imax) (Asu-ACR-16 [1]; mean±S.E.M., N=5): 100.1 ± 4.36%

SMILES: c1cncc([C@@H]2CCCCN2)c1 [(S)-anabasine]
- Hill slope (nH) (Asu-ACR-16 [1]; [3]): 2.26 ± 0.20
- maximum response (Imax) (Asu-ACR-16 [1]; mean±S.E.M., N=5): 84.82 ± 4.20%

SMILES: CN1C(=O)CC[C@H]1c1cccnc1 [(S)-cotinine, (−)-cotinine]
- agonist activity (in words) (Asu-ACR-16 [1]; [5]): did not act as agonists

SMILES: CN1CCC[C@H]1c1cccnc1 [(S)-nicotine, (−)-nicotine hydrogen tartrate salt]
- EC50 (Asu-ACR-16 [1]): 6210 ± 560 nM
- Emax (Asu-ACR-16 [1]): 82.4 ± 2.52%

SMILES: CN1CCC[C@H]1c1cncc(C=O)c1 [(S)-nicotine-5-carboxaldehyde]
- Hill slope (nH) (Asu-ACR-16 [1]; [3]): 8.61 ± 4.04
- EC50 (Asu-ACR-16 [1]; [4]): 11500 ± 630 nM
- maximum response (Imax) (Asu-ACR-16 [1]; mean±S.E.M., N=5): 62.20 ± 6.80%

SMILES: CC(=O)OCC[N+](C)(C)C.[Cl-] [ACh, acetylcholine chloride]
- Hill slope (nH) (Asu-ACR-16 [1]; [3]): 2.93 ± 0.13

SMILES: CN1CCCCC1c1cccnc1 (stereo not shown) [N-methyl-anabasine, N-methyl anabasine]
- agonist activity (in words) (Asu-ACR-16 [1]; [5]): inactive; also recorded: did not act as agonists

SMILES: CCN1CCCC1c1cccnc1 (stereo not shown) [homonicotine]
- Hill slope (nH) (Asu-ACR-16 [1]; [3]): 6.78 ± 2.50
- maximum response (Imax) (Asu-ACR-16 [1]; mean±S.E.M., N=5): 22.01 ± 1.39%

SMILES: c1cncc([C@@H]2CCCN2)c1 [nornicotine, (+)-nornicotine]
- Hill slope (nH) (Asu-ACR-16 [1]; [3]): 3.25 ± 0.49
- Emax (Asu-ACR-16 [1]): 62.6 ± 3.42%
